Data as given in patent publication US8236761B2, “C-Met receptor regulation by angiotensin IV (AT4) receptor ligands” (Washington State University Research Foundation, priority 2006, dated 2012).
Non-standard residues stand in square brackets, D forms with d. No end group written: not given here. Nle = CCCC[C@H](N)C(=O)O

Experiments:
[1] = target: c-Met (Homo sapiens, UniProt P08581); assay: Immunoprecipitation/Western blot of HGF-dependent c-Met and Gab1 phosphorylation and association in HEK293 cells; type: cell-based; parameters: host or cells: HEK293; conditions: HEK293 cells, 10 minutes
Description: (FIG. 5A) HEK293 cells were treated for 10 minutes with HGF at indicated concentrations. Lysates were immunoprecipitated (IP) with anti-c-Met antibody (DO-24) and immunoblotted (IB) with anti-c-Met or anti-phospho-tyrosine (06-427) antibody. (FIG. 5B) HEK293 cells were treated for 10 minutes with HGF and/or Norleual. Lysates were IP with anti-c-Met (DO-24) and IB with anti-c-Met (DQ-13) or anti-phospho-tyrosine (HAM 1676). (FIG. 5C) HEK293 lysates were IP with anti-c-Met (DO-24) and IB with anti-Gab1. (FIG. 5D) HEK 293 lysates were IP with anti-Gab1 and IB with anti-Gab1 or anti-phospho-tyrosine (HAM 1676). (FIGS. 5E, 5F, 5G) Relative amounts (normalized to % total c-Met in IP) of quantified IP/IB band intensities for control, 110 pM HGF-, 110 pM HGF and 20 pM Norleual-, and 20 pM Norleual-treated HEK293 cells for phospho-c-Met (FIG. 5E, n=4), phospho-Gab1 (FIG. 5F, n=4), and c-Met associated Gab1 (FIG. 5G, n=3). Error bars indicate ±SD.
HEK293 cells were treated for 10 minutes with HGF and/or Norleual at the indicated concentrations. Lysates were IP with anti-c-Met (DO-24, Millipore/Upstate, Billerica, Mass.) and IB with anti-c-Met (DQ-13, Millipore/Upstate) or anti-phosphotyrosine (HAM1676, lot JLB03, R&D Systems, Inc., Minneapolis, Minn.).
Immunoprecipitation and Western blotting. Cells were serum starved for two hours in DMEM before treatment. Cells were harvested using RIPA lysis buffer (Upstate Biotechnol. Inc., Lake Placid, N.Y.) with phosphatase inhibitor cocktails 1 and 2 (Sigma, St Louis, Mo., USA). Protein concentration was determined using the BCA assay (Pierce, Rockford, Ill., USA). Lysates were incubated with antibody overnight at 4° C. Immunoprecipitation controls received mouse non-specific Ig (Upstate). Proteins were captured with protein-A agarose (Upstate) and were washed with PBS. Proteins were resolved using SDS-PAGE electrophoresis (Criterion, BioRad, Hercules, Calif., USA), transferred to nitrocellulose, and incubated with appropriate antibodies. Proteins were visualized using the Supersignal West Pico Chemiluminescent Substrate system (Pierce). The film images were digitized and analyzed using TotalLab® software (AmershamPharmacia/GE HealthCare, Piscataway, N.J.).
Whether the interaction of Norleual with the c-Met receptor had functional consequences regarding c-Met signaling was next investigated by determining whether Norleual could alter the phosphorylation status of cellular protein tyrosine phosphate (FIG. 4) and more specifically, of c-Met (i.e., c-Met activation), and also whether Norleual could modulate Gab1 association with c-Met. Human embryonic kidney HEK293 cells were activated by HGF in the presence or absence of Norleual. Solubilized membranes were immunoprecipitated (IP) with an anti-c-Met antibody and immunoblotted (IB) for total c-Met, anti-phospho-tyrosine to detect the activated form of c-Met, and anti-Gab1 to detect c-Met/Gab1 association. […] To confirm these findings, treated HEK293 lysates were precipitated with anti-Gab1 and blotted for total Gab1 and phospho-Gab1, its activated form. Again, Norleual inhibited HGF-induced Gab1 phosphorylation (FIGS. 5D, […]).

[2] = tested on: c-Met receptor; assay: Cross-linking of 125I-COMPOUND 2 or 125I-HGF to HEK293 cell membranes with unlabeled competitor; type: binding, human; conditions: cross-linked, 1 nM competitor
Description: (§1) FIG. 3C: ^125I-Norleual was bound to HEK membranes in the presence or absence of 1.5 nM HGF (n=8) or 1 μM Norleual (n=6). Total binding is reported as percent control (n=10), (*p<0.001). Error bars indicate±SD. […] Error bars indicate SD and data points were performed in duplicate.
Briefly, COMPOUND 2 was iodinated with […] and bound and cross-linked to HEK cell membranes with or without 1 nM COMPOUND 2 or 1 nM hepatocyte growth factor. Following solubilization and separation of free label by molecular sieving, total radioactive counts were determined. The ability of the ligand COMPOUND 2 to compete with hepatocyte growth factor binding to the c-Met receptor was also tested using mouse liver plasma membranes and intact HEK293 cells. Briefly, mouse liver was homogenized and incubated with ^125I-HGF with various concentrations of HGF or COMPOUND 2. Membranes were pelleted and unbound label was removed by washing, and total radioactive counts were determined. Next, HEK293 cell membranes were cross-linked with ^125I-HGF with unlabeled HGF or COMPOUND 2.

[3] = tested on: HEK293 cell membranes (c-Met system); assay: 125I-Norleual binding assay, HEK293 cell membranes; parameters: species or system human; conditions: 1.5 nM HGF or 1 μM Norleual
Description: as §1
^125I-Norleual binding assay. HEK293 cells were grown to confluency in DMEM fortified with 10% FBS. Media was aspirated and cells were washed twice with ice-cold PBS. Cells were lysed with hypotonic buffer and homogenized as described by Zhang et al. (1999, J. Pharmacol. Exp. Ther. 289: 1075-1083; 2003 J. Cell Biochem. 88: 408-417). 450 μg of membrane protein was incubated with 1.5 nM ^125I-Norleual with or without Norleual or HGF in a total volume of 250 μl PBS, 0.1% BSA. Tubes were spun and binding was carried out for 60 minutes at RT. Bound and free ligands were separated by vacuum filtration using (Brandel Cell Harvester, Schleicher & Schull, Keene, N.H., USA) 32 glass filters. Radioactivity retained by the filters was measured using a gamma counter. […] Data analysis was preformed using Prism software (GraphicPad) per the supplier's recommendations.
Materials and methods were as described in Example 1. In separate tests of unlabeled competitors, both Norleual and HGF competed with ^125I-HGF for high affinity binding to mouse liver plasma membranes (FIGS. 2A, 2B). […]

[4] = tested on: neovascularization; assay: Disc angiogenesis assay (subcutaneous sponge disc); type: in vivo, Sprague Dawley rats; conditions: 50 μg per disc core, 14 days, rat
Description: FIG. 19 depicts effects on angiogenesis of angiotensin-like factors in a rat in vivo disc angiogenesis assay. Vascularization was quantified by digital image analysis of fixed and stained discs recovered from animals 14 days after subcutaneous implantation of sponge discs containing the indicated compounds.
Disc Angiogenesis Assay. […] A 2 mm core was removed from the center of each disc, saturated with 50 μg of Nle^1-AngIV (SEQ ID NO:41), Nle^1-Leu^3-Ψ(CH2NH2)^3-4-AngIV, Hexamide, or ethanol (control), air dried, then sealed using a fixative (Elvax, DuPont) to allow sustained delivery of the drug treatment into the disc and adjacent tissues. The cores were dried for 30 min, then reinserted into the sponge discs. Impermeable top and bottom covers were prepared by coating 10 mm diameter paper discs with a plexiglass coating, then glued to the top and bottom of the sponge discs, leaving only the rim of the disc available for centripetal cellular penetration. Just prior to implantation, the discs were soaked briefly in sterile saline.
Thirty-two Sprague Dawley female rats (225-275 gr) were used to evaluate four compounds for angiogenic or anti-angiogenic properties using the disc angiogenesis assay. Animals were anesthetized using sodium pentobarbital (40 mg/kg IP). The dorsum was then shaved and aseptically prepped. Each animal received four discs. Animals receiving treated discs were implanted with 2 treated discs and 2 ethanol-soaked control discs. Thus, in a group of 4 animals there were 8 treatment discs, and 8 control discs. These control discs were used to determine whether the ligand had potential systemic effects. Another group of 4 animals received only ethanol-soaked control discs (spontaneous growth controls or SGC discs) for an n=16. However, one SGC was fragmented during processing leaving an n=15.
Four 2 cm cutaneous incisions were made along the dorsum (left thoracic, right thoracolumbar, left thoracolumbar, and right lumbar), and subcutaneous pouches opened in the fascia using blunt dissection. Discs were moistened in sterile saline, inserted deep to the pouch, and the skin closed with sterile surgical staples. Animals were recovered under heat lamps until sternally recumbent, then individually housed for 14 days in an AAALAC accredited facility (water and food ad libitum; 12/12 hour light cycle).
After 14 days the animals were euthanized in a CO2 chamber and the discs were removed. […] Cellular penetration into the discs was quantified using a digital imaging system (Imaging Research Inc., St. Catharines, Ontario, Canada). The total area of the disc was calculated, as was the area containing stained cells. […]
Results. Following staining with toludine blue or Factor VIII, neovascularization was quantitated by densitometry.

[5] = tested on: human endothelial cells; assay: Proliferation and migration of human endothelial cells; type: cell-based

Chain of c-Met (P08581 308-1390 limits assumed): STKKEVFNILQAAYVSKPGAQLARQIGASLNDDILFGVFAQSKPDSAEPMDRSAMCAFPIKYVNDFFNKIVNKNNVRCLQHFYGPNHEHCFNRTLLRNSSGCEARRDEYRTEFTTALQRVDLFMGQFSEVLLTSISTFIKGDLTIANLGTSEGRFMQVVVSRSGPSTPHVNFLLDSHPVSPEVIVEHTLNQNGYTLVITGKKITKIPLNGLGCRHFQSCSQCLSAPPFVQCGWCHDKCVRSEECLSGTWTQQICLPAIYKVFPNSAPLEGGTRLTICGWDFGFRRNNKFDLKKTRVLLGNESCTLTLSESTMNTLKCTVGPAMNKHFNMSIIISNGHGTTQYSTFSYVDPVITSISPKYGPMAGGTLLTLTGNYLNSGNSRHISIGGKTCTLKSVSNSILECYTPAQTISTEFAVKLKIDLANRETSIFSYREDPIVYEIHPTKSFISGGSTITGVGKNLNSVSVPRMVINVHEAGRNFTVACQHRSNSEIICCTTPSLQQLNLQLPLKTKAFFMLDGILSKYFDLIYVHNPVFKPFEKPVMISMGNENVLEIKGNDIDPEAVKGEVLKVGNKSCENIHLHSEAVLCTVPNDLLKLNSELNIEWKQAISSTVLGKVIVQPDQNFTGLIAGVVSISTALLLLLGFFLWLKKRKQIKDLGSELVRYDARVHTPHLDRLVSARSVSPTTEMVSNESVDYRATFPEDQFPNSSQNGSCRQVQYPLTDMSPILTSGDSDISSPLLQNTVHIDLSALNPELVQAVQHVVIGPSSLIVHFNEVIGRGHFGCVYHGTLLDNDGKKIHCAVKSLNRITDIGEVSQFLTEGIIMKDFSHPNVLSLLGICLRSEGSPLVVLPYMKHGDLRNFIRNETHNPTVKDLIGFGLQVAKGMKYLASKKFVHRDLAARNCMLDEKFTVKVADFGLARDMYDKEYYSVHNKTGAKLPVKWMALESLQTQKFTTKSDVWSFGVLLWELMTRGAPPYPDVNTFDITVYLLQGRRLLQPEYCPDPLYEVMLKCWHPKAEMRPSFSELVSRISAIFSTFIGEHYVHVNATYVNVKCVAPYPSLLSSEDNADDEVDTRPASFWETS
Chain of c-Met (P08581 25-307 limits assumed): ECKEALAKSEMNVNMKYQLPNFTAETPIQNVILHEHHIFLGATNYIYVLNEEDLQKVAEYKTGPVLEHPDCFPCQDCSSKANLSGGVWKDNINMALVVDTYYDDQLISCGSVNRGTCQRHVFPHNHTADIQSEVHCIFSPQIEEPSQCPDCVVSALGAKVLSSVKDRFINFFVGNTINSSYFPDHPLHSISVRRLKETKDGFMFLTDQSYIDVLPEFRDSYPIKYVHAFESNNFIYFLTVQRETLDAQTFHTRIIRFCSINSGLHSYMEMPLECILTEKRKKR

| Substance | Concentration at which c-Met auto-phosphorylation saturates [1] | Effect on 125I-COMPOUND 2 binding to HEK cells [2] | Competition for 125I-Norleual specific binding to HEK293 cell membranes [3] | Effect on angiogenesis in disc assay versus SGC discs [4] | Proliferation and migration of human endothelial cells [5] |
| --- | --- | --- | --- | --- | --- |
| HGF: Hepatocyte growth factor (SEQ ID NO:83), purchased from R&D systems; native ligand of the c-Met receptor | 550 pM | blocked | competed | – | – |
| Nle-Tyr-Ile-6(amino) hexanoic acid amide [Compound 4] | – | – | – | antagonist activity | – |
| Nle-Tyr-Ile-His ([Nle]YIH) [Compound 3] | – | – | – | antagonist activity | – |
| Nle-Tyr-Ile-His-Pro-Phe ([Nle]YIHPF) [Compound 1] | – | – | – | lone AT4 receptor agonist | augmented |
